In patent US10131644B2, “Aryl sultam derivatives as RORc modulators” (Genentech, Inc., priority 2014, dated 2018):

Biological target: T1, RORc (Homo sapiens, UniProt P51449)
T1 sequence (P51449 269-508 limits assumed): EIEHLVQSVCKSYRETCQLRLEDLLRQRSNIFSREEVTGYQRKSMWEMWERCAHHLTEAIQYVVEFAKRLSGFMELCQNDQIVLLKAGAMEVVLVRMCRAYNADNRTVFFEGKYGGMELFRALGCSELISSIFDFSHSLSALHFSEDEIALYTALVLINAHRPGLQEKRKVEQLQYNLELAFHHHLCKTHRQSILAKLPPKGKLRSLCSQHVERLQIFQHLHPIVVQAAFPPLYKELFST
Experiment: In vitro RORc ligand binding assay (25-[3H]hydroxycholesterol displacement)
Conditions: IC50, IC50 values for RORc; unit inferred
Description: This assay was used to determine a compound's potency in inhibiting activity of RORc by determining, Kiapp, IC50, or percent inhibition values.
On day of the assay, 100 uL of 0.05% CHAPS (in deionized H2O) was added to all wells of the GFB Unifilter plate and allowed soak for 1 h. A wash buffer of 50 mM HEPES (pH 7.4), 150 mM NaCl, and 5 mM MgCl2 was prepared to wash the filter plate. To prepare an assay buffer, BSA was added to the wash buffer to reach 0.01% and DTT was added to reach 1 mM.
The 20× compound stocks were diluted in DMSO with Assay Buffer 4-fold to reach 5× the final test concentration in 25% DMSO (10 uL compound+30 uL Assay Buffer). Solutions were mixed by aspiration several times with a pipette set on 50 uL volume. For the assay, 10 uL of 5× compound stock solutions in 25% DMSO were added to the assay plate in duplicate.
For two point screening, 10 mM stock compound solutions were diluted in DMSO to obtain 200 uM (20× the high test concentration) and then diluted 10-fold further to reach 20 uM (20× the low test concentration). The 20× stocks were diluted 4-fold with Assay Buffer (10 uL compound+30 uL Assay Buffer) to reach 5× the test concentrations (50 uM and 5 uM) and 10 uL were added to two assay plates for the duplicate wells. With each concentration tested on 2 plates, each set of 80 compounds used 4 assay plates (1 uM and 10 uM, with n=2).
For 25-hydroxycholesterol in 25% DMSO/75% Assay Buffer; 10 uL per well was used for NSB samples. Wells for Total Binding and No Receptor sample determination contained 10 uL of 25% DMSO/75% Assay Buffer per well.
Add 20 uL to all wells to reach 6 nM final in the assay.
Stock receptor solution was diluted in assay buffer to obtain 1.5 ug/mL in Assay Buffer. 20 uL was added to all wells. For No R samples, 20 uL Assay Buffer was substituted for receptor solution.
Assay plates were 96-well polypropylene V-bottom plates. 10 uL of 5× compound in 25% DMSO/75% Assay Buffer was added to Test wells. 10 uL of 25% DMSO/75% Assay Buffer was added to Total Binding or No Receptor wells. 10 uL of 5 uM 25-hydroxycholesterol in 25% DMSO/75% Assay Buffer was added to NSB wells. […] 20 uL of 1.5 ug/mL RORc receptor was added to wells (or 40 uL Assay Buffer to No R wells). Following addition to the wells, the plates were incubated 3 h at 25° C.
Using a Packard Filtermate Harvester, the filter plate were washed 4 times following transfer of the incubated samples. Plates were dry-filtered completely (2 h at 50° C. or overnight at room temperature). 50 uL Microscint 0 was added to all wells and read on Topcount protocol Inverted.
For NSB wells, 1 uM 25-hydroxycholesterol was also present.

| SMILES | IC50 [nM] |
| --- | --- |
| C[C@H]1CC[C@H](c2ccccc2)S(=O)(=O)N1Cc1ccc(C2(C#N)CC(=O)C2)cc1F [Compound 162, 1-[3-fluoro-4-[[(3S,6R)-3-methyl-1,1-dioxo-6-phenyl-thiazinan-2-yl]methyl]phenyl]-3-oxo-cyclobutanecarbonitrile] | 63.9 |
| C[C@H]1CC[C@H](c2ccccc2)S(=O)(=O)N1Cc1ccc(C2(NC(=O)C(O)CO)CCOCC2)cc1F (stereo partly drawn) [Compound 111, N-[4-[3-fluoro-4-[[(3S,6R)-3-methyl-1,1-dioxo-6-phenyl-thiazinan-2-yl]methyl]phenyl]tetrahydropyran-4-yl]-2,3-dihydroxy-propanamide] | 138 |
| C[C@H]1CC[C@@H](c2ccccc2)S(=O)(=O)N1Cc1ccc(C2(C(=O)O)CCOCC2)cc1F [Compound 45, 4-[3-Fluoro-4-((3S,6S)-3-methyl-1,1-dioxo-6-phenyl-[1,2]thiazinan-2-ylmethyl)-phenyl]-tetrahydro-pyran-4-carboxylic acid] | 6100 |
| C[C@H]1CC[C@H](c2ccccc2)S(=O)(=O)N1Cc1ccc(C2(CO)CC2)cc1F [Compound 112, [1-[3-fluoro-4-[[(3S,6R)-3-methyl-1,1-dioxo-6-phenyl-thiazinan-2-yl]methyl]phenyl]cyclopropyl]methanol] | 206 |
| C[C@H]1CC[C@H](c2ccccc2)S(=O)(=O)N1Cc1ccc([C@]2(C(N)=O)C[C@H](O)C2)cc1F [Compound 182, 1-[3-fluoro-4-[[(3S,6R)-3-methyl-1,1-dioxo-6-phenyl-thiazinan-2-yl]methyl]phenyl]-3-hydroxy-cyclobutanecarboxamide] | 37.3 |
| C[C@H]1CC[C@H](c2ccccc2)S(=O)(=O)N1Cc1ccc(C2(CNS(C)(=O)=O)CCOCC2)cc1F [Compound 71, N-[[4-[3-fluoro-4-[[(3S,6R)-3-methyl-1,1-dioxo-6-phenyl-thiazinan-2-yl]methyl]phenyl]tetrahydropyran-4-yl]methyl]methanesulfonamide] | 76.7 |
| C[C@@H](O)CNC(=O)C1(c2ccc(CN3[C@@H](C)CC[C@H](c4ccccc4)S3(=O)=O)c(F)c2)CCOCC1 [Compound 66] | 47.4 |
| C[C@H]1CC[C@H](c2ccccc2)S(=O)(=O)N1Cc1ccc(C2(CCC#N)COC2)cc1F [Compound 159] | 77.1 |

These reach a lower IC50. Values come first.

| IC50 [nM] | SMILES |
| --- | --- |
| 35.2 | C[C@H]1CC[C@H](c2ccccc2)S(=O)(=O)N1Cc1ccc(C2([C@@H](O)CCO)CCOCC2)cc1F [Compound 117, (1S)-1-[4-[3-fluoro-4-[[(3S,6R)-3-methyl-1,1-dioxo-6-phenyl-thiazinan-2-yl]methyl]phenyl]tetrahydropyran-4-yl]propane-1,3-diol] |
| 30 | C[C@H]1CC[C@H](c2ccccc2)S(=O)(=O)N1Cc1ccc(C2(C(N)=O)CCC3(CC2)OCCO3)cc1F [Example 22, 8-[3-Fluoro-4-((3S,6R)-3-methyl-1,1-dioxo-6-phenyl-[1,2]thiazinan-2-ylmethyl)-phenyl]-1,4-dioxa-spiro[4.5]decane-8-carboxylic acid amide] |
| 29.8 | CC(=O)N1CC(OCC(O)CO)(c2cc(F)c(CN3[C@@H](C)CC[C@H](c4ccccc4)S3(=O)=O)cc2F)C1 (stereo partly drawn) [Compound 143, 1-[3-[2,5-difluoro-4-[[(3S,6R)-3-methyl-1,1-dioxo-6-phenyl-thiazinan-2-yl]methyl]phenyl]-3-(2,3-dihydroxypropoxy)azetidin-1-yl]ethanone] |
| 13 | C[C@H]1CC[C@@H](c2ccccc2)S(=O)(=O)N1Cc1cc(F)c([C@]2(O)CC[C@@H](n3cnnc3)CC2)cc1F [Compound 36, 1-[2,5-Difluoro-4-((3S,6S)-3-methyl-1,1-dioxo-6-phenyl-[1,2]thiazinan-2-ylmethyl)-phenyl]-4-[1,2,4]triazol-4-yl-cyclohexanol] |
| 4.9 | CCOC(=O)CCC1(c2ccc(CN3[C@@H](C)CC[C@H](c4ccccc4)S3(=O)=O)c(F)c2)CCOCC1 [Compound 79, ethyl 3-[4-[3-fluoro-4-[[(3S,6R)-3-methyl-1,1-dioxo-6-phenyl-thiazinan-2-yl]methyl]phenyl]tetrahydropyran-4-yl]propanoate] |
